Data reported in the CheMixHub viscosity set.
± gives the uncertainty stated by the source.

Assay: xn = mol fraction of the nth substance listed

CCCCCCCCCCC + CCCCO
viscosity [mPa·s], 100 kPa
Conditions	x1 = 0.1003	x1 = 0.1998	x1 = 0.3006	x1 = 0.4	x1 = 0.5006	x1 = 0.6013	x1 = 0.6989	x1 = 0.8018	x1 = 0.8991
293.15 K	2.391 ± 0.051	–	1.749 ± 0.037	1.549 ± 0.033	1.398 ± 0.03	–	1.223 ± 0.026	–	–
298.15 K	2.107 ± 0.045	–	–	1.391 ± 0.03	1.264 ± 0.027	1.177 ± 0.025	1.119 ± 0.024	–	–
303.15 K	–	–	1.399 ± 0.03	1.257 ± 0.027	1.15 ± 0.025	1.076 ± 0.023	1.028 ± 0.022	0.997 ± 0.021	0.974 ± 0.021
308.15 K	–	–	1.261 ± 0.027	1.141 ± 0.024	1.05 ± 0.022	0.99 ± 0.021	0.949 ± 0.02	0.923 ± 0.02	–
313.15 K	–	1.288 ± 0.027	1.141 ± 0.024	1.04 ± 0.022	0.964 ± 0.021	0.913 ± 0.02	0.879 ± 0.019	0.857 ± 0.018	0.838 ± 0.018
318.15 K	–	1.163 ± 0.025	1.037 ± 0.022	0.952 ± 0.02	0.888 ± 0.019	0.845 ± 0.018	0.817 ± 0.017	0.798 ± 0.017	0.781 ± 0.017
323.15 K	1.199 ± 0.026	1.054 ± 0.022	0.947 ± 0.02	0.874 ± 0.019	0.82 ± 0.018	0.785 ± 0.017	0.761 ± 0.016	0.746 ± 0.016	0.73 ± 0.016

CCOC(=O)CCC(=O)OCC + CCCCO
100 kPa
Conditions	viscosity [mPa·s]
303.15 K, x1 = 0.1	1.845 ± 0.016
308.15 K, x1 = 0.6998	1.635 ± 0.016
313.15 K, x1 = 0.3	1.355 ± 0.013
318.15 K, x1 = 0.2001	1.245 ± 0.012
323.15 K, x1 = 0.8997	1.435 ± 0.014

CN1CCC[C@H]1c1cccnc1 + CCCCO
100 kPa
Conditions	viscosity [mPa·s]
298.15 K, x1 = 0.3931	3.155 ± 0.065
303.15 K, x1 = 0.7	3.205 ± 0.067
313.15 K, x1 = 0.1	1.885 ± 0.039

NC=O + CCCCO
Conditions	viscosity [mPa·s]
293.15 K, 101 kPa, x1 = 0.1093	3.225 ± 0.072
298.15 K, 100 kPa, x1 = 0.09212	2.58 ± 0.06
298.15 K, 100 kPa, x1 = 0.1905	2.67 ± 0.06
298.15 K, 100 kPa, x1 = 0.2439	2.76 ± 0.06
298.15 K, 100 kPa, x1 = 0.2798	2.82 ± 0.06
298.15 K, 100 kPa, x1 = 0.3484	2.96 ± 0.07
298.15 K, 100 kPa, x1 = 0.4402	3.17 ± 0.07
298.15 K, 100 kPa, x1 = 0.5809	3.46 ± 0.08
298.15 K, 100 kPa, x1 = 0.6667	3.58 ± 0.08
298.15 K, 100 kPa, x1 = 0.7277	3.65 ± 0.08
298.15 K, 100 kPa, x1 = 0.7869	3.66 ± 0.08
298.15 K, 100 kPa, x1 = 0.8345	3.64 ± 0.08
298.15 K, 100 kPa, x1 = 0.8771	3.6 ± 0.08
298.15 K, 100 kPa, x1 = 0.9257	3.53 ± 0.08
298.15 K, 100 kPa, x1 = 0.9728	3.43 ± 0.08

OCCCl + CCCCO
viscosity [mPa·s], 101.33 kPa
Conditions	x1 = 0.097	x1 = 0.1922	x1 = 0.2941	x1 = 0.3928	x1 = 0.4937	x1 = 0.5925	x1 = 0.6943	x1 = 0.7957	x1 = 0.8961
298.15 K	2.59 ± 0.059	2.593 ± 0.059	2.597 ± 0.059	2.616 ± 0.059	2.641 ± 0.06	2.672 ± 0.061	2.702 ± 0.061	2.731 ± 0.062	2.781 ± 0.063
303.15 K	2.29 ± 0.052	2.25 ± 0.052	2.271 ± 0.052	2.288 ± 0.052	2.316 ± 0.053	2.363 ± 0.054	2.38 ± 0.054	2.4 ± 0.055	2.428 ± 0.055
308.15 K	2.028 ± 0.047	2.029 ± 0.047	2.026 ± 0.047	2.027 ± 0.047	2.047 ± 0.047	2.075 ± 0.048	2.1 ± 0.048	2.12 ± 0.049	2.14 ± 0.049

OCCCl + CCCCOC(C)=O
viscosity [mPa·s], 101.33 kPa
Conditions	x1 = 0.1068	x1 = 0.2078	x1 = 0.3045	x1 = 0.4056	x1 = 0.5002	x1 = 0.5993	x1 = 0.7	x1 = 0.8008	x1 = 0.8994
298.15 K	0.718 ± 0.005	0.784 ± 0.006	0.865 ± 0.006	0.97 ± 0.007	1.105 ± 0.008	1.286 ± 0.009	1.549 ± 0.011	1.919 ± 0.014	2.359 ± 0.017
303.15 K	0.669 ± 0.005	0.732 ± 0.005	0.801 ± 0.006	0.894 ± 0.006	1.013 ± 0.007	1.169 ± 0.008	1.391 ± 0.01	1.704 ± 0.012	2.106 ± 0.015
308.15 K	0.627 ± 0.005	0.684 ± 0.005	0.746 ± 0.005	0.828 ± 0.006	0.932 ± 0.007	1.07 ± 0.007	1.262 ± 0.009	1.518 ± 0.011	1.849 ± 0.014

CCCCCCCCCCC + CCCCOCCCC
viscosity [mPa·s], 101 kPa
Conditions	x2 = 0.1096	x2 = 0.2089	x2 = 0.3153	x2 = 0.4013	x2 = 0.5046	x2 = 0.6034	x2 = 0.7073	x2 = 0.8109	x2 = 0.9181
298.15 K	1.004 ± 0.013	0.9429 ± 0.012	0.889 ± 0.011	0.8479 ± 0.011	0.8073 ± 0.01	0.7715 ± 0.0097	0.7333 ± 0.0093	0.7 ± 0.0089	0.6643 ± 0.0084
308.15 K	0.8817 ± 0.011	0.8306 ± 0.01	0.7845 ± 0.0099	0.7501 ± 0.0095	0.7159 ± 0.0091	0.6891 ± 0.0087	0.6599 ± 0.0084	0.6356 ± 0.0081	0.6114 ± 0.0078
318.15 K	0.7547 ± 0.0095	0.7179 ± 0.0091	0.6814 ± 0.0086	0.6523 ± 0.0083	0.624 ± 0.0079	0.5989 ± 0.0076	0.5761 ± 0.0074	0.5579 ± 0.0071	0.5355 ± 0.0069

NC=O + CCCCn1cc[n+](C)c1.F[B-](F)(F)F
101 kPa
Conditions	viscosity [mPa·s]
293.15 K, x2 = 0.7588	71.35 ± 2.4
303.15 K, x2 = 0.5095	21.65 ± 0.68

CCOC(=O)CCC(=O)OCC + CCCO
100 kPa
Conditions	viscosity [mPa·s]
293.15 K, x1 = 0.3998	1.875 ± 0.017
313.15 K, x1 = 0.4999	1.325 ± 0.013
318.15 K, x1 = 0.8997	1.545 ± 0.015
323.15 K, x1 = 0.3998	1.065 ± 0.011
